From US10537100B2, “Substituted methylenedioxybenzyl compounds and their use as synergists” (Endura SPA, priority 2015, dated 2020)

Test system: Musca domestica
Experiment: Contact test on treated glass surfaces, synergist with cypermethrin
Format: in vivo
Conditions: in combination with cypermethrin
Protocol: Laboratory bred Musca domestica species, 4-5 days old mixed sex imagoes derived from a field collected strain were assayed for the test. 1000 ml of test solutions were prepared diluting in water 6.06 grams of cypermethrin commercial formulation, equivalent to 0.224 g of cypermethrin per liter of insecticidal solution and a suitable amount of synergist such as to have a ratio between cypermethryn and synergists=1:13. The synergists were formulated in the form of emulsified concentrate (EC). The following amount of the formulations of synergist EC were added to the above described insecticidal solution of cypermethrin.
3.83 g of EC formulation containing 77.1% (w/w) of the compound of Example 2 (5-n-butyl-6-((prop-2-ynyloxy)methyl)benzo[d][1,3]dioxole)
3.57 g of EC formulation containing 83% (w/w) of the comparison compound 5-(but-2-ynyloxymethyl)-6-n-propyl-benzo[1,3]dioxole (EN126) corresponding to 2.95 g of the compound of the invention and of the comparison product per liter of test formulation
1 ml of each test formulation was applied to each individual grass surface of 100 cm^2 by means of a hand held pump sprayer on a scale measuring by 2 decimal precision, being the acceptable limit of divergence: +/−10%. The treated glass surfaces were left at room temperature for 24 hours after treatment and prior to be used. 40 mixed sex Musca domestica imagoes (20 males and 20 females) were selected and placed into a 500 cm^3 glass cylinders covered with an untreated glass surface until the start of the study. Five replicates were executed, altogether 200 houseflies (100 males and 100 females) were used per test formulation. At the beginning of the test, the untreated glass covering the glass cylinder was replaced with a glass surface treated with the test formulation. The exposure time was 30 minutes. After this period of time, the treated glass surfaces were removed and replaced with untreated ones. During the test water and food (water/sugar solution) were provided to the test insect inside the glass cylinders
In parallel with the test, the mortality of flies in an untreated control replicate was determined using the same conditions and methods. Throughout the control test, non-treated glass surfaces covered the glass cylinders. The maximum mortality rate allowed within the control group to consider the test representative was 10% after 24 hours. If above this value, the test was not considered representative and was repeated. During the trials, no deviance has been noted.
The test conditions were as follows: • temperature: 23-25° C. • relative humidity: min. 60% • light regime: 12 hrs dark/12 hrs natural illumination.
The reading intervals of the number of knocked down flies were: 10-20-30-40-50-60-90-120-180 minutes. Mortality was determined after 24 hours.
The efficacy was calculated according the following formula

For `C#CCOCc1cc2c(cc1CCCC)OCO2` [Compound of Example 2, 5-n-butyl-6-((prop-2-ynyloxy)methyl)benzo[d][1,3]dioxole], the “efficacy compared with comparison product EN126” value was “better efficacy” and the “knock down activity compared with comparison product EN126” value (clearly notable at short times) was “better knock down activity”.
